Experimental data as given in ChEMBL document CHEMBL1201862, “PubChem BioAssay data set” (2004).
Activity calls are given as the source filed them.

Experiments:
[1] = target: T1, Short transient receptor potential channel 4 (Mus musculus, UniProt Q9QUQ5); test: block of DAMGO-driven TRPC4 calcium entry – cell-based, HEK293 TRPC4/mu-opioid, Fluo-4 calcium, dose response (AID 434942); format: functional;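 note: potency of inhibitors blocking the TRPC4 calcium response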
T1 sequence (Q9QUQ5 whole entry): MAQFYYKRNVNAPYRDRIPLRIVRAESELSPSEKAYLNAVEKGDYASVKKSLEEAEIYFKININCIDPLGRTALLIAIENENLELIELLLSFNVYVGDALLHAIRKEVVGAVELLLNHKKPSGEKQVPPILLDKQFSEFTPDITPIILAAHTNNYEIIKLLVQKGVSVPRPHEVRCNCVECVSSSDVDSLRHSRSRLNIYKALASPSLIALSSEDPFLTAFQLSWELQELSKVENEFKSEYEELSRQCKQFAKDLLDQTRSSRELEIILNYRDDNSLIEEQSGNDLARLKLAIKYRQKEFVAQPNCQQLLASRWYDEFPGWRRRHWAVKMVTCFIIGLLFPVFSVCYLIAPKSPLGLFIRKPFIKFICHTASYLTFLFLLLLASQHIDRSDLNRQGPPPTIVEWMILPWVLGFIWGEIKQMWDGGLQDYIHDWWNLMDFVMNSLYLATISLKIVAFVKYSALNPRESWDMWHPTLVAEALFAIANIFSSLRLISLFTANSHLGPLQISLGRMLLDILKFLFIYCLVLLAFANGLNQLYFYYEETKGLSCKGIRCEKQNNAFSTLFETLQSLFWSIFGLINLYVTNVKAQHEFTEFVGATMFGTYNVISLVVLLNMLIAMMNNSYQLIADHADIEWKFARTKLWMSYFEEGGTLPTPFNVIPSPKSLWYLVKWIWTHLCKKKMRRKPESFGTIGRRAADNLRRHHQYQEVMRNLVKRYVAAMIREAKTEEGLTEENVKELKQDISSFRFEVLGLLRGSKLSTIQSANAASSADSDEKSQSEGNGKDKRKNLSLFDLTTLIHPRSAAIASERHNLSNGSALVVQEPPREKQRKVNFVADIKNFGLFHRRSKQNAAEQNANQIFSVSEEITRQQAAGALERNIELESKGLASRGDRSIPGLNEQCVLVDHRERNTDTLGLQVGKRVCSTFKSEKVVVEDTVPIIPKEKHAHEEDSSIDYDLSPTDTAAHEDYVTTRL

[2] = target: Beta-2 adrenergic receptor (Homo sapiens, UniProt P07550); test: ADRB2 activation measured by internalization – cell-based, FAP fluorogen, flow cytometry, cherry pick 1, dose response (AID 588763); format: functional
Sequence of Beta-2 adrenergic receptor (P07550 whole entry): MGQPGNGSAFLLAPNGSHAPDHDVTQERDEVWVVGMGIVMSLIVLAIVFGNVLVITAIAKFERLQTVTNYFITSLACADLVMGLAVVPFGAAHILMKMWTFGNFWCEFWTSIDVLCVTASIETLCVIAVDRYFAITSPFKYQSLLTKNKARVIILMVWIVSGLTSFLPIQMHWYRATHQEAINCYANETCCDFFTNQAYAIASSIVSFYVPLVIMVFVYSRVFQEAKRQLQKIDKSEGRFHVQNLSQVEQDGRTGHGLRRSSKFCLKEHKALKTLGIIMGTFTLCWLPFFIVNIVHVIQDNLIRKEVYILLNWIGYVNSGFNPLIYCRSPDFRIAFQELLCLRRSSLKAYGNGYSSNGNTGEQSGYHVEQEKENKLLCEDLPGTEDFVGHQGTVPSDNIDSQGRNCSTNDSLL

Nonstructural protein 1 = Nonstructural protein 1 (Influenza A virus, UniProt Q194T2); format: functional, Influenza A virus (A/California/07/2009(H1N1))
Sequence of Nonstructural protein 1 (Q194T2 whole entry): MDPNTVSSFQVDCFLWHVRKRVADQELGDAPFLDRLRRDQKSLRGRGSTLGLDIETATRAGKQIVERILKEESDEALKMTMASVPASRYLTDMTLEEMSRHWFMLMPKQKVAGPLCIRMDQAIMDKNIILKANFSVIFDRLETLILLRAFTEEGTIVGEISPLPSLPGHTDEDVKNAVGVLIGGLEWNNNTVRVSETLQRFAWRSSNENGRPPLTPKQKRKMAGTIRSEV

[3] = target: T2, Apoptotic protease-activating factor 1 (Homo sapiens, UniProt O14727); format: functional
T2 sequence (O14727 whole entry): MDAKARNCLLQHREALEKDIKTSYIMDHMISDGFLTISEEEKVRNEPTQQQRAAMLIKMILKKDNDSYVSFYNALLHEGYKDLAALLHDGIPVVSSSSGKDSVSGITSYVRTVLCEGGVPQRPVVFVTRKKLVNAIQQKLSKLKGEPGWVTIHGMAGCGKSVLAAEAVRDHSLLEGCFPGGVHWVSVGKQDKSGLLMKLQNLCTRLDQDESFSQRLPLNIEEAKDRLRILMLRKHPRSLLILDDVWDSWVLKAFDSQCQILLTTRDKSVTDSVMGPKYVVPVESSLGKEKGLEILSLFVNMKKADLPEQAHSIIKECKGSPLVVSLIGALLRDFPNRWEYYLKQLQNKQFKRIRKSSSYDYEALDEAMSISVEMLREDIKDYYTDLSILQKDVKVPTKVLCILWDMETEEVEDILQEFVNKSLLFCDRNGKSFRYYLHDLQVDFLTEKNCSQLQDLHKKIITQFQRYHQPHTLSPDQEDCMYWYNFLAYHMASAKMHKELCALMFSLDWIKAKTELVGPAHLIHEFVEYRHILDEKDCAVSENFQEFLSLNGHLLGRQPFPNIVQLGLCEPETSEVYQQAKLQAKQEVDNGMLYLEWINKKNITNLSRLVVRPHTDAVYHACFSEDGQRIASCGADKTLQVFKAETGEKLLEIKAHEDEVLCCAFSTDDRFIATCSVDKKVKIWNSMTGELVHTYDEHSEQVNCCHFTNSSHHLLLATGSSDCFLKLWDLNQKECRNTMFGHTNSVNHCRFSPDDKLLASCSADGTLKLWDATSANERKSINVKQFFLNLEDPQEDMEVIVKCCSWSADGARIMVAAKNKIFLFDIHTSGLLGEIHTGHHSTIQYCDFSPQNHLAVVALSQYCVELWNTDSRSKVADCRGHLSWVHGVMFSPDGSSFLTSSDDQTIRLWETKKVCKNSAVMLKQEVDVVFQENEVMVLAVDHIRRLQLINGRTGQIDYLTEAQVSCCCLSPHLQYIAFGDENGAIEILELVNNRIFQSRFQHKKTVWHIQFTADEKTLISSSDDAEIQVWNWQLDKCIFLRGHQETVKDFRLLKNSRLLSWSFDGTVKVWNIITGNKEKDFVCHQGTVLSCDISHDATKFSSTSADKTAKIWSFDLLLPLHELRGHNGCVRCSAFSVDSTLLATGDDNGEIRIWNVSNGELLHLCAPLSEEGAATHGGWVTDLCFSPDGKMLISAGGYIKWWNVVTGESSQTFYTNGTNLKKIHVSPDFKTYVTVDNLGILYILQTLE

Streptokinase A = target: T3, Streptokinase A (Streptococcus pyogenes serotype M1, UniProt P10520); test: viability-normalized secreted streptokinase activity reduction – plasminogen activation absorbance, OD405, dose response (AID 1914); format: functional, Streptococcus pyogenes M1 GAS;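 note: secreted streptokinase activity via plasminogen activation per viability signal from cell pellet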
T3 sequence (P10520 whole entry): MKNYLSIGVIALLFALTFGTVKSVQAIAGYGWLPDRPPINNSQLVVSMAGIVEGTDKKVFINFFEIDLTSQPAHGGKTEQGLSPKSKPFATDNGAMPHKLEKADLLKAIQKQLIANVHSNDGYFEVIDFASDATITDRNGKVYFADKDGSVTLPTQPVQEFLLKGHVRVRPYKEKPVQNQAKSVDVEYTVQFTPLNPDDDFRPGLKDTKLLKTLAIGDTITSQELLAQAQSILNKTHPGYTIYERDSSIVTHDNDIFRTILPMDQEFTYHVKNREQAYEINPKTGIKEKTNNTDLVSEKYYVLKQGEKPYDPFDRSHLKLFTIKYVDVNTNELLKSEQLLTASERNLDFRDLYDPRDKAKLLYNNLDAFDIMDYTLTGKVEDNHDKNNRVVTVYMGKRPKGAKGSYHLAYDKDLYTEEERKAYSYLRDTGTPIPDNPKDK

Streptococcus = test: GAS UMAA2166 growth inhibition – luminescence, BacTiterGlo, counter-screen for streptokinase expression inhibitor project, dose response (AID 1915); format: functional, organism-based;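 note: potency for reduction of bacterial viability or growth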
[4] = target: T4, Microphthalmia-associated transcription factor (Homo sapiens, UniProt O75030); test: reducers of TRPM1 reporter luminescence, concentration series – cell-based, SK-MEL-5, cherry-picked, set 3, MITF inhibitor project, dose response (AID 493073); format: functional;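 note: SK-MEL-5 melanoma cells with luciferase driven by the MITF target TRPM1 promoter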
T4 sequence (O75030 whole entry): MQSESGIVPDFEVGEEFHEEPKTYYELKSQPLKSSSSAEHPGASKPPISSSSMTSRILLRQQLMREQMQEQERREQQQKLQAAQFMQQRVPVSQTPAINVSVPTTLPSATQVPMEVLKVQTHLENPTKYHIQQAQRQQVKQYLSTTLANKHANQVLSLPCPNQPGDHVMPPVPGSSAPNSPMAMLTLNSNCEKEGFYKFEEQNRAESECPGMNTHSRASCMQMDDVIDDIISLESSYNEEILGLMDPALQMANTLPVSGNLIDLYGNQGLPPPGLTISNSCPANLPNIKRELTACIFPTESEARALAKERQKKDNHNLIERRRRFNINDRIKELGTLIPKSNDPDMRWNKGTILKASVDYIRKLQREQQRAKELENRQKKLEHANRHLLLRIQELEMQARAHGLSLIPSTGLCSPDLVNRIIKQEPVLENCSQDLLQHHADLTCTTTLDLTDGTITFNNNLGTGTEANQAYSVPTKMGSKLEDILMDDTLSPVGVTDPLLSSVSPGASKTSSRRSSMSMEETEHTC

[5] = test system: Streptococcus sp. 'group A'; test: Streptococcus pyogenes SK(-)GAS viability under kanamycin – luminescence, BacTiterGlo, confirmation, counter-screen for streptokinase expression inhibitor project, dose response (AID 1900); format: functional, organism-based
INS1 = test: INS-1E survival protection against cytokine death – cell-based, luminescence, retest, dose response (AID 449756); format: functional; conditions: Rattus norvegicus;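 note: cell death triggered by IL-1 beta plus TNF-alpha plus IFN-gamma mixture; protective hits raise ATP signal compared with cytokine alone wells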
[6] = DRD fibroblast viability loss – cell-based, non-viral oncogenic, luminescence, dose response (AID 1934); format: functional; conditions: Homo sapiens
BJ [7] = test: cells; format: functional, cell-based; conditions: Homo sapiens
BJ [8] = test: BJ-TERT-LT-ST fibroblast viability loss – cell-based, RAS-independent, luminescence, dose response (AID 1935); format: functional; conditions: Homo sapiens;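 note: BJ fibroblasts immortalized with TERT plus LT and ST oncogenes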
[9] = target: T5, Nucleotide-binding oligomerization domain-containing protein 1 (Homo sapiens, UniProt Q9Y239); test: blockers of NOD1 pathway activity – revised, SAR follow-up (AID 2333); format: functional
T5 sequence (Q9Y239 whole entry): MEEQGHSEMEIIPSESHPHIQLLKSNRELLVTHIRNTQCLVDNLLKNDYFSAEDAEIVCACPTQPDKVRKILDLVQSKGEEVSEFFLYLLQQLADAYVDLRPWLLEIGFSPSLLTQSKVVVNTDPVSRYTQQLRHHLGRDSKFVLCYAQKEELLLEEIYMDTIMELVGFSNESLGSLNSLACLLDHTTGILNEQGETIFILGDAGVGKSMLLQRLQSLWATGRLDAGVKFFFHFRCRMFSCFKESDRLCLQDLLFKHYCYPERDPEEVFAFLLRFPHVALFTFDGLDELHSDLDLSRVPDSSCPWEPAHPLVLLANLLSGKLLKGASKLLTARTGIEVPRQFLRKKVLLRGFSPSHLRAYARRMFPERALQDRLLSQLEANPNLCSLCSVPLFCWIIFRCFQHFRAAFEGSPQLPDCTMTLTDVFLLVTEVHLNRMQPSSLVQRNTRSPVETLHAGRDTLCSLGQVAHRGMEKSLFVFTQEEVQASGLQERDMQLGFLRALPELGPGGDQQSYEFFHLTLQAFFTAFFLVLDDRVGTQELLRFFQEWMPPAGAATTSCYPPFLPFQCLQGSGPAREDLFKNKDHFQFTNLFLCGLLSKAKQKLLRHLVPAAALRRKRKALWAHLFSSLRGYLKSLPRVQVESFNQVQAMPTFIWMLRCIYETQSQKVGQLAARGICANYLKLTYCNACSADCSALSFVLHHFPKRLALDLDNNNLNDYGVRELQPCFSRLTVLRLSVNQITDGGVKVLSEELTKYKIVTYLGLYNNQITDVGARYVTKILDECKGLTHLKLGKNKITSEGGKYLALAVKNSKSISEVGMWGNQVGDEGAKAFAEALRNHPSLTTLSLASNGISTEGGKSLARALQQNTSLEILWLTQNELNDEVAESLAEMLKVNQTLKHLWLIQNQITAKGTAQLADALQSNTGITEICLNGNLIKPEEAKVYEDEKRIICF

BJ [10] = test: BJ-TERT fibroblast viability loss – cell-based, RAS-independent, luminescence, dose response (AID 1933); format: functional; conditions: Homo sapiens
HEK293 = test: cells; conditions: Homo sapiens;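 note: cells exposed to compound for 14 hours overnight before viability readout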
Tumor necrosis factor = Tumor necrosis factor (Homo sapiens, UniProt P01375); test: analog potency on TNFa NF-kB signaling – cell-based, revised, SAR follow-up (AID 2337); format: functional
Sequence of Tumor necrosis factor (P01375 whole entry): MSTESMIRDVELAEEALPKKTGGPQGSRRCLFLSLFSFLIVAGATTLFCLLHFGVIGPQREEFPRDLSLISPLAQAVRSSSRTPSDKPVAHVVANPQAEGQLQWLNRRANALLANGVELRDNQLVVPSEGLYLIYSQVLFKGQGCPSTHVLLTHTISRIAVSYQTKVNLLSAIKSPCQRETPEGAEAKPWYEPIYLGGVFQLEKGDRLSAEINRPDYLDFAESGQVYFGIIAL

CC(C)(c1ccccc1)c1ccc(OCCCNCCO)cc1
EC50 [1]: 4.22 µM (active)

CCc1ccc(CNC(=O)c2ccc(NC(=O)C3=CSCCO3)cc2)cc1
EC50 [2]: 0.0949 µM (active)

O=C1C(NS(=O)(=O)c2ccc(Cl)cc2)=C(N2CCCCC2)C(=O)c2ccccc21
IC50 (Nonstructural protein 1): 11.4 µM (active) | IC50 [3]: 30.5 µM (active)

CCCCCn1cc[n+](C2=C([N-]S(=O)(=O)c3ccccc3)C(=O)c3ccccc3C2=O)c1
EC50 (Streptokinase A): 3.69 µM (active) | EC50 (Streptococcus): 13.3 µM (active) | AC50 [4]: 5.9 µM (active) | EC50 [5]: 1.15 µM (active) | AC50 (INS1): 4.7 µM (active) | IC50 [3]: 13.8 µM (active)

COCCn1c(SCc2cc(C(C)=O)ccc2OC)nc2cc(Cl)ccc2c1=O
EC50 [1]: 3.35 µM (active)

CCC(=O)Nc1ccc(-c2nn3c(C)nnc3s2)cc1C
EC50 [2]: 3.12 µM (active)

Clc1ccc(CN2C3=NCCN3c3ccccc32)cc1Cl
EC50 [1]: 1.19 µM (active)

CC1(C)CC2CC(C)(CN2C(=O)c2cc(-c3ccc(O)cc3)on2)C1 (stereo not given)
EC50 [1]: 5.31 µM (active)

O=C(Nc1ccc(S(=O)(=O)N2CCCCC2)cc1)c1ccc(CN2CCc3ccccc3C2)cc1
EC50 [6]: 22 µM (active) | EC50 (BJ [7]): 51.8 µM (active) | EC50 (BJ [8]): > 150 µM (not active) | IC50 [9]: 0.432 µM (active) | EC50 (BJ [10]): 23.9 µM (active) | IC50 (HEK293): 19.5 µM (active) | IC50 (Tumor necrosis factor): 0.616 µM (active)

COc1ccc(NC(=O)c2ccc(CN3CCCCC3)cc2)cc1
IC50 [9]: > 20 µM (inactive) | IC50 (HEK293): > 20 µM (inactive) | IC50 (Tumor necrosis factor): > 20 µM (inactive)

O=C(CN1CCCCC1)N1c2ccccc2Oc2ccccc21
EC50 [1]: 6.68 µM (active)
